# From patent US12655116B2, “Substituted isophthalic acid diamides” (Bayer Aktiengesellschaft, priority 2020, dated 2026)
# Assays:
# ABUTH [1] = experiment: Pre-emergence herbicidal action against ABUTH; type: in vivo, Abutilon theophrasti
# Summary of the method: (§1)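 Pre-emergence soil-surface spray of formulated compound (WP or EC; 600 to 800 l/ha; 0.2% wetting agent) over seeds sown in sandy loam. After 3 weeks under greenhouse conditions, damage is estimated visually in percent against untreated plants.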
# POLCO = experiment: Pre-emergence herbicidal action against POLCO; type: in vivo, Polygonum convolvulus; conditions: dosage 80 g/ha
# Summary of the method: as §1
# VIOTR [2] = experiment: Pre-emergence herbicidal action against VIOTR; type: in vivo, Viola tricolor
# Summary of the method: as §1
# AMARE [3] = experiment: Pre-emergence herbicidal action against AMARE; type: in vivo, Amaranthus retroflexus
# Summary of the method: as §1
# ECHCG [4] = experiment: Pre-emergence herbicidal action against ECHCG; type: in vivo, Echinochloa crus-galli
# Summary of the method: as §1
# ALOMY [5] = experiment: Pre-emergence herbicidal action against ALOMY; type: in vivo, Alopecurus myosuroides
# Summary of the method: as §1
# MATIN [6] = experiment: Pre-emergence herbicidal action against MATIN; type: in vivo, Matricaria inodora
# Summary of the method: as §1
# PHBPU [7] = experiment: Pre-emergence herbicidal action against PHBPU; type: in vivo, Pharbitis purpurea; conditions: dosage 80 g/ha
# Summary of the method: as §1
# VERPE [8] = experiment: Post-emergence herbicidal action against VERPE; type: in vivo, Veronica persica
# Summary of the method: (§2)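 Greenhouse plants in sandy loam were sprayed at the one-leaf stage, 2 to 3 weeks after sowing, with WP or EC formulations as aqueous suspension or emulsion (600 to 800 l/ha water, 0.2% wetting agent). Visual damage was scored about 3 weeks later versus untreated controls, 0% = like control, 100% = dead.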
# MATIN [9] = experiment: Post-emergence herbicidal action against MATIN; type: in vivo, Matricaria inodora; conditions: dosage 20 g/ha
# Summary of the method: as §2
# VERPE [10] = experiment: Pre-emergence herbicidal action against VERPE; type: in vivo, Veronica persica; conditions: dosage 80 g/ha
# Summary of the method: as §1
# SETVI [11] = experiment: Pre-emergence herbicidal action against SETVI; type: in vivo, Setaria viridis
# Summary of the method: as §1
# ALOMY [12] = experiment: Post-emergence herbicidal action against ALOMY; type: in vivo, Alopecurus myosuroides; conditions: visual assessment about 3 weeks after treatment vs untreated controls
# Summary of the method: as §2
# VIOTR [13] = experiment: Post-emergence herbicidal action against VIOTR; type: in vivo, Viola tricolor
# Summary of the method: as §2
# LOLRI = experiment: Pre-emergence herbicidal action against LOLRI; type: in vivo, Lolium rigidum; conditions: 80 g/ha
# Summary of the method: as §1
# PHBPU [14] = experiment: Post-emergence herbicidal action against PHBPU; type: in vivo, Pharbitis purpurea; conditions: dosage 20 g/ha
# Summary of the method: as §2
# AVEFA [15] = experiment: Pre-emergence herbicidal action against AVEFA; type: in vivo, Avena fatua; conditions: 80 g/ha, pre-emergence
# Summary of the method: as §1
# DIGSA [16] = experiment: Pre-emergence herbicidal action against DIGSA; type: in vivo, Digitaria sanguinalis
# Summary of the method: as §1
# SETVI [17] = experiment: Post-emergence herbicidal action against SETVI; type: in vivo, Setaria viridis; conditions: dosage 20 g/ha
# Summary of the method: as §2
# ECHCG [18] = experiment: Post-emergence herbicidal action against ECHCG; type: in vivo, Echinochloa crus-galli; conditions: dosage 20 g/ha
# Summary of the method: as §2
# AMARE [19] = experiment: Post-emergence herbicidal action against AMARE; type: in vivo, Amaranthus retroflexus; conditions: 20 g/ha, visual assessment about 3 weeks after treatment, 100% = plants have died, 0% = like control plants
# Summary of the method: as §2
# ABUTH [20] = experiment: Post-emergence herbicidal action against ABUTH; type: in vivo, Abutilon theophrasti; conditions: dosage 20 g/ha, visual assessment about 3 weeks after treatment vs untreated controls
# Summary of the method: as §2
# AVEFA [21] = experiment: Post-emergence herbicidal action against AVEFA; type: in vivo, Avena fatua; conditions: visual assessment about 3 weeks after treatment, 100% = plants have died, 0% = like control plants
# Summary of the method: as §2
# DIGSA [22] = experiment: Post-emergence herbicidal action against DIGSA; type: in vivo, Digitaria sanguinalis; conditions: 20 g/ha
# Summary of the method: as §2
# [23] = 80 g/ha, scored visually after 3 weeks vs untreated controls (100% = plants have died, 0% = like control plants)
smiles,measurement,setting,value
Cn1nnnc1NC(=O)c1ccc(C(F)(F)F)c(C(=O)NCC2CC2)c1Cl [Example 1-132],Pre-emergence action against ABUTH (herbicidal activity),ABUTH [1]; [23],100%
same,Pre-emergence action against ABUTH (herbicidal activity in percent),"ABUTH [1]; dosage 20 g/ha, scored visually after 3 weeks vs untreated controls, 100% = plants have died, 0% = like control plants",100%
same,Pre-emergence action against POLCO in %,POLCO,80%
same,Pre-emergence action against VIOTR in %,VIOTR [2]; dosage 20 g/ha,100%
same,Pre-emergence action against VIOTR in %,VIOTR [2]; dosage 80 g/ha,100%
same,Pre-emergence action against AMARE in %,"AMARE [3]; 20 g/ha, scored visually after 3 weeks vs untreated controls, 100% = plants have died, 0% = like control plants",100%
same,Pre-emergence action against AMARE in %,AMARE [3]; [23],100%
same,Pre-emergence action against ECHCG in %,ECHCG [4]; 20 g/ha,90%
same,Pre-emergence action against ECHCG in %,ECHCG [4]; 80 g/ha,100%
same,Pre-emergence action against ALOMY,"ALOMY [5]; 20 g/ha, scored visually after 3 weeks, 100% = plants have died, 0% = like control plants",80%
same,Pre-emergence action against ALOMY (herbicidal activity),"ALOMY [5]; 80 g/ha, pre-emergence, scored visually after 3 weeks vs untreated controls (100% = plants have died, 0% = like control plants)",100%
same,Pre-emergence action against MATIN in %,MATIN [6]; dosage 20 g/ha,100%
same,Pre-emergence action against MATIN in %,MATIN [6]; dosage 80 g/ha,100%
same,Pre-emergence action against PHBPU in %,PHBPU [7],80%
same,Post-emergence action against VERPE in %,VERPE [8]; 5 g/ha,90%
same,Post-emergence action against VERPE in %,VERPE [8]; 20 g/ha,90%
same,Post-emergence action against MATIN in %,MATIN [9],80%
same,Pre-emergence action against VERPE in %,VERPE [10],100%
same,Pre-emergence action against SETVI in %,SETVI [11]; dosage 20 g/ha,80%
same,Pre-emergence action against SETVI in %,SETVI [11]; dosage 80 g/ha,100%
same,Post-emergence action against ALOMY in %,ALOMY [12]; dosage 5 g/ha,80%
same,Post-emergence action against ALOMY in %,ALOMY [12]; dosage 20 g/ha,90%
same,Post-emergence action against VIOTR in %,VIOTR [13]; 5 g/ha,80%
same,Post-emergence action against VIOTR in %,VIOTR [13]; 20 g/ha,90%
same,Pre-emergence action against LOLRI in %,LOLRI,80%
same,Post-emergence action against PHBPU in %,PHBPU [14],90%
same,Pre-emergence action against AVEFA in %,AVEFA [15],100%
same,Pre-emergence action against DIGSA in %,DIGSA [16]; dosage 20 g/ha,100%
same,Pre-emergence action against DIGSA in %,DIGSA [16]; dosage 80 g/ha,100%
same,Post-emergence action against SETVI in %,SETVI [17],90%
same,Post-emergence action against ECHCG in %,ECHCG [18],90%
same,Post-emergence action at 20 g/ha against AMARE in %,AMARE [19],100%
same,Post-emergence action against ABUTH in %,ABUTH [20],80%
same,Post-emergence action at 5 g/ha against AVEFA in %,AVEFA [21]; 5 g/ha,80%
same,Post-emergence action at 20 g/ha against AVEFA in %,AVEFA [21]; 20 g/ha,90%
same,Post-emergence action against DIGSA,DIGSA [22],90%
